Measured values: patent US7323485B2, “4-(substituted cycloalkylmethyl) imidazole-2-thiones, 4-(substituted cycloalkenylmethyl) imidazole-2-thiones, 4-(substituted cycloalkylmethyl) imidazol-2-ones and 4-(substituted cycloalkenylmethyl) imidazol-2-ones and related compounds” (Allergan, Inc., priority 2002, dated 2008)

Tests used:
[1] = target: T1, alpha2B adrenergic receptors (Homo sapiens, UniProt P18089); assay: Receptor Selection and Amplification Technology (RSAT) assay, alpha2B; type: cell-based; conditions: for EC50: NA = not active at concentrations less than 10 micromolar, read-out: Alpha 2B EC50; for Alpha 2B intrinsic activity: fraction of maximal effect of standard full agonist brimonidine (UK14304)
T1 construct: expressed in transfected cells; host or cells: NIH-3T3
T1 sequence (P18089 1-450): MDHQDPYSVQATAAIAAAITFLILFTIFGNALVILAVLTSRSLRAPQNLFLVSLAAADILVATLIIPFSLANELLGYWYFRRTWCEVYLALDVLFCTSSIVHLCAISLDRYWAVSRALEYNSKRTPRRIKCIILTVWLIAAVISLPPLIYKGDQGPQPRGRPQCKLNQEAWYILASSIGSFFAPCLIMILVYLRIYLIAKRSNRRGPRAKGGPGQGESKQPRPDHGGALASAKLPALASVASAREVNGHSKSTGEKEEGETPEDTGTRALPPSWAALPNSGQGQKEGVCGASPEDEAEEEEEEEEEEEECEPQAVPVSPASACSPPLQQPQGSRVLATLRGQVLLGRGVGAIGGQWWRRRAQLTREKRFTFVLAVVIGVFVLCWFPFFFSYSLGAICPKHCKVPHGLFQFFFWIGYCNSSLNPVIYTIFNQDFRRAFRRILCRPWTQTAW
Text: (§1) The imidazole-2-thione compounds of the invention are agonists of alpha2 adrenergic receptors, particularly they tend to be specific or selective agonists of alpha2B and/or to a lesser extent alpha2C adrenergic receptors, in preference over alpha2A adrenergic receptors. […] Al., 1995, Pharmacol. Toxicol. 76, pp. 308-311 (incorporated herein by reference) and is also described below. Another reference pertinent to this assay is Conklin et al. (1993) Nature 363:274-6, also incorporated herein by reference.
(§2) Receptor Selection and Amplification Technology (RSAT) Assay
(§3) The RSAT assay measures a receptor-mediated loss of contact inhibition that results in selective proliferation of receptor-containing cells in a mixed population of confluent cells. The increase in cell number is assessed with an appropriate transfected marker gene such as β-galactosidase, the activity of which can be easily measured in a 96-well format. Receptors that activate the G protein, Gq, elicit this response. Alpha2 receptors, which normally couple to Gi, activate the RSAT response when coexpressed with a hybrid Gq protein that has a Gi receptor recognition domain, called Gq/i5.
(§4) NIH-3T3 cells are plated at a density of 2×10^6 cells in 15 cm dishes and maintained in Dulbecco's modified Eagle's medium supplemented with 10% calf serum. One day later, cells are cotransfected by calcium phosphate precipitation with mammalian expression plasmids encoding p-SV-β-galactosidase (5-10 μg), receptor (1-2 μg) and G protein (1-2 μg). 40 μg salmon sperm DNA may also be included in the transfection mixture. Fresh media is added on the following day and 1-2 days later, cells are harvested and frozen in 50 assay aliquots. Cells are thawed and 100 μl added to 100 μl aliquots of various concentrations of drugs in triplicate in 96-well dishes. Incubations continue 72-96 hr at 37 EC. After washing with phosphate-buffered saline, β-galactosidase enzyme activity is determined by adding 200 μl of the chromogenic substrate (consisting of 3.5 mM o-nitrophenyl-β-D-galactopyranoside and 0.5% nonidet P-40 in phosphate buffered saline), incubating overnight at 30 EC and measuring optical density at 420 nm. The absorbance is a measure of enzyme activity, which depends on cell number and reflects a receptor-mediated cell proliferation. The EC50 and maximal effect of each drug at each alpha2 receptor is determined. The efficacy or intrinsic activity is calculated as a ratio of the maximal effect of the drug to the maximal effect of a standard full agonist for each receptor subtype. Brimonidine, also called UK14304, the chemical structure of which is shown below, is used as the standard agonist for the alpha2A, alpha2B and alpha2C receptors.
(§5) The results of the RSAT assay with several exemplary compounds of the invention are disclosed in Table 1 above together with the chemical formulas of these examplary compounds. […] NA stands for “not active” at concentrations less than 10 micromolar. As is known EC50 is the concentration at which half of a given compound's maximal activity is observed.

[2] = target: T2, alpha2C adrenergic receptors (Homo sapiens, UniProt P18825); assay: Receptor Selection and Amplification Technology (RSAT) assay, alpha2C; type: cell-based; conditions: for EC50: NA = not active at concentrations less than 10 micromolar, read-out: Alpha 2C EC50; for Alpha 2C intrinsic activity: fraction of maximal effect of standard full agonist brimonidine (UK14304)
T2 construct: expressed in transfected cells; host or cells: NIH-3T3
T2 sequence (P18825 1-462): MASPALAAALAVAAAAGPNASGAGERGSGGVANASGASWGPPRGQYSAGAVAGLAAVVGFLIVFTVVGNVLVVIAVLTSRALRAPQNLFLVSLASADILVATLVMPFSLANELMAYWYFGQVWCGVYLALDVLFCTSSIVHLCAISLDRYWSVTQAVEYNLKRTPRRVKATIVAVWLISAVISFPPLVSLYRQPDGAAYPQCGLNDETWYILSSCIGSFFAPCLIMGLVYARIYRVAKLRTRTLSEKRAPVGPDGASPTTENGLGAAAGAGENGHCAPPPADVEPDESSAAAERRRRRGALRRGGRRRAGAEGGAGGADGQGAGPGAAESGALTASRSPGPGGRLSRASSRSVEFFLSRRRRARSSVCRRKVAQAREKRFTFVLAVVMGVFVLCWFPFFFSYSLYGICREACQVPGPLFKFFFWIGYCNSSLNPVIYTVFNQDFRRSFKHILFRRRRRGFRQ
Text: as §1, §2, §3, §4, §5

For CC1=C(c2ccc(C#N)cc2)C(Cc2c[nH]c(=S)[nH]2)CC1 (stereo not shown), the EC50 [1] was 22 nM, the “Alpha 2B intrinsic activity” value [1] was 0.93 and the EC50 [2] was 41 nM. For the same compound, the “Alpha 2C intrinsic activity” value [2] was 0.85.

Cc1cccc2c1CC(c1c[nH]c(=S)[nH]1)C2 (stereo not shown) was tested, and the EC50 [1] was 3 nM, the “Alpha 2B intrinsic activity” value [1] was 0.99 and the EC50 [2] was 13 nM. For the same compound, the “Alpha 2C intrinsic activity” value [2] was 0.62.

S=c1[nH]cc(C2Cc3cccc(I)c3C2)[nH]1 (stereo not shown) was tested, and the EC50 [1] was 7 nM, the “Alpha 2B intrinsic activity” value [1] was 0.96 and the EC50 [2] was 101 nM. The “Alpha 2C intrinsic activity” value [2] was 0.49.

In the case of Fc1cccc(C2=CCC[C@H]2Cc2c[nH]c(=S)[nH]2)c1, the EC50 [1] is reported as 191 nM, the “Alpha 2B intrinsic activity” value [1] is reported as 0.53 and the EC50 [2] is reported as 916 nM. For the same compound, the “Alpha 2C intrinsic activity” value [2] was 0.37.

CC(C)CC1=CCCC1Cc1c[nH]c(=S)[nH]1 (stereo not shown) was tested, and the EC50 [1] was 260 nM, the “Alpha 2B intrinsic activity” value [1] was 1.0 and the EC50 [2] was 662 nM. The “Alpha 2C intrinsic activity” value [2] was 0.75.

With CCC1=CC(Cc2c[nH]c(=S)[nH]2)CC1 (stereo not shown) the EC50 [1] was 750 nM, the “Alpha 2B intrinsic activity” value [1] was 0.49 and the EC50 [2] was greater than 2000 nM. The “Alpha 2C intrinsic activity” value [2] was 0.32.

With Fc1ccc(C2=CCC[C@@H]2Cc2c[nH]c(=S)[nH]2)cc1 the EC50 [1] was 269 nM, the “Alpha 2B intrinsic activity” value [1] was 0.97 and the EC50 [2] was 131 nM. The “Alpha 2C intrinsic activity” value [2] was 0.72.

For CCC1=CCCCC1Cc1c[nH]c(=S)[nH]1 (stereo not shown), the EC50 [1] was 161 nM, the “Alpha 2B intrinsic activity” value [1] was 1.0 and the EC50 [2] was 331 nM. The “Alpha 2C intrinsic activity” value [2] was 1.0.

For S=c1[nH]cc(CC2CCCc3ccccc32)[nH]1 (stereo not shown), the EC50 [1] was 24 nM, the “Alpha 2B intrinsic activity” value [1] was 0.93 and the EC50 [2] was 137 nM. The “Alpha 2C intrinsic activity” value [2] was 0.42.

For S=c1[nH]cc(CC2CCC=C2Cl)[nH]1 (stereo not shown), the EC50 [1] was 28 nM, the “Alpha 2B intrinsic activity” value [1] was 0.9 and the EC50 [2] was 116 nM. The “Alpha 2C intrinsic activity” value [2] was 0.55.

In the case of Fc1ccc2c(c1)CCC2Cc1c[nH]c(=S)[nH]1 (stereo not shown), the EC50 [1] is reported as 41 nM, the “Alpha 2B intrinsic activity” value [1] is reported as 0.97 and the EC50 [2] is reported as 1110 nM. The “Alpha 2C intrinsic activity” value [2] was 0.52.

With O=C1c2c(F)cccc2CCC1Cc1c[nH]c(=S)[nH]1 (stereo not shown) the EC50 [1] was 172 nM, the “Alpha 2B intrinsic activity” value [1] was 0.76 and the EC50 [2] was 107 nM. The “Alpha 2C intrinsic activity” value [2] was 0.35.

In the case of O=C1C2=C(CCC1Cc1c[nH]c(=S)[nH]1)NCCC2 (stereo not shown), the EC50 [1] is reported as 755 nM, the “Alpha 2B intrinsic activity” value [1] is reported as 0.98 and the EC50 [2] is reported as 2260 nM. For the same compound, the “Alpha 2C intrinsic activity” value [2] was 0.88.

In the case of CC1=C(c2ccc(F)cc2)C(Cc2c[nH]c(=S)[nH]2)CC1 (stereo not shown), the EC50 [1] is reported as 51 nM, the “Alpha 2B intrinsic activity” value [1] is reported as 0.78 and the EC50 [2] is reported as 22 nM. For the same compound, the “Alpha 2C intrinsic activity” value [2] was 0.95.

In the case of S=c1[nH]cc(CC2CCC3=C2CCC3)[nH]1 (stereo not shown) [drawing 15], the EC50 [1] is reported as 5 nM, the “Alpha 2B intrinsic activity” value [1] is reported as 0.87 and the EC50 [2] is reported as 110 nM. For the same compound, the “Alpha 2C intrinsic activity” value [2] was 0.43.

With Fc1ccc(C2=C(C3CC3)CCC2Cc2c[nH]c(=S)[nH]2)cc1 (stereo not shown) the EC50 [1] was 32 nM, the “Alpha 2B intrinsic activity” value [1] was 0.9 and the EC50 [2] was 9 nM. The “Alpha 2C intrinsic activity” value [2] was 0.45.

With S=c1[nH]cc(CC2CCC3=C2CCCC3)[nH]1 (stereo not shown) the EC50 [1] was 30 nM, the “Alpha 2B intrinsic activity” value [1] was 1.06 and the EC50 [2] was 602 nM. For the same compound, the “Alpha 2C intrinsic activity” value [2] was 0.55.

In the case of CCC1=C(c2ccc(F)cc2)C(Cc2c[nH]c(=S)[nH]2)CC1 (stereo not shown), the EC50 [1] is reported as 103 nM, the “Alpha 2B intrinsic activity” value [1] is reported as 0.97 and the EC50 [2] is reported as 40 nM. For the same compound, the “Alpha 2C intrinsic activity” value [2] was 0.52.

S=c1[nH]cc(CC2CCc3ccccc32)[nH]1 (stereo not shown) [drawing 16] was tested, and the EC50 [1] was 10 nM, the “Alpha 2B intrinsic activity” value [1] was 0.91 and the EC50 [2] was 182 nM. For the same compound, the “Alpha 2C intrinsic activity” value [2] was 0.57.

For COc1ccc2c(c1)CCC2Cc1c[nH]c(=S)[nH]1 (stereo not shown), the EC50 [1] was 1590 nM, the “Alpha 2B intrinsic activity” value [1] was 0.68 and the EC50 [2] was greater than 2000 nM. The “Alpha 2C intrinsic activity” value [2] was 0.46.

In the case of COc1ccc(C2=CCCC2Cc2c[nH]c(=S)[nH]2)cc1 (stereo not shown), the EC50 [1] is reported as greater than 3000 nM, the “Alpha 2B intrinsic activity” value [1] is reported as 0.56 and the EC50 [2] is reported as 568 nM. The “Alpha 2C intrinsic activity” value [2] was 0.47.

With Cc1cccc2c1C(=O)C(Cc1c[nH]c(=S)[nH]1)CC2 (stereo not shown) the EC50 [1] was 29 nM, the “Alpha 2B intrinsic activity” value [1] was 0.96 and the EC50 [2] was 66 nM. For the same compound, the “Alpha 2C intrinsic activity” value [2] was 0.47.
